This note sets out measurements from patent US5719296A, “Pseudopeptide lactam inhibitors of peptide binding to MHC class II proteins” (Merck & Co., Inc., priority 1996, dated 1998).

This test has as its target T1, DR1Dw1 (Homo sapiens, UniProt P01903+P01911, A100R/D57E/F55L/F60I/F76Y/I96L/L162R/M171V/P40L/Q125E/R42F/V115G/Y59C).
T1 construct: these are Drosophila transmembrane DR; made in house; host or cells: Drosophila (cells)
In words: Inhibition assay: inhibition of biotinylated RMBP 90-102 peptide binding to MHC class II DR1. On the procedure:
For direct binding assays, optimal concentrations of affinity purified DR1Dwl (1.25 nM) or DR4Dw4 (10 nM) are incubated with serial dilutions of biotinylated rat myelin basic protein (RMBP) 90-102 in PBS (phosphate buffered saline) containing 0.75% octyl glucoside, pH 6.5, in 96-well polypropylene plates for 16 to 20 h at 37° C. In studies optimizing the assay it was determined that only between 5 to 10% of the DR molecules are capable of binding added peptide. Therefore, the effective concentration of DR1Dw1 and DR4Dw4 was approximately 0.125 and 1.0 nM, respectively. […] The DR-peptide complexes (50 μL) are transferred to wells of a 96-well EIA plate precoated with LB3.1, the monoclonal antibody which recognizes the DR alleles of MHC Class II, and blocked with PBS with fetal calf serum (FCS). An additional 50 μL of 50 mM Tris, pH 7.0, containing 0.75% octyl glucoside is added to each well and the mixture incubated overnight at 4° C. Excess peptide is removed by washing with PBS containing 0.05% Tween 20 (Polyoxyethylene sorbitan monolaurate) and 0.01% NAN3. Europium-labeled streptavidin (Wallac Inc.) is added and incubated overnight. After washing, complexes are measured by the addition of Enhance™ buffer, the tradename for 0.1 M acetate phthalate buffer, pH 3.2, containing 0.1% Triton X-100, tradename for polyoxyethylene ethers and other surface active compounds of Union Carbide Chemicals and Plastics Co., Inc. (particularly, a non-ionic surfactant for recovery of membrane components under non-denaturing conditions) 15 µM 2-naphthoyltrifluoroacetone, and 50 μM tri-N-octylphosphine oxide, which buffer releases the chelated europium from streptavidin and forms a highly fluorescent micellar solution. The resultant fluorescence is measured using a fluorescent plate reader (e.g., DELPHIA, Wallac, Inc.). The data are analyzed using a four-parameter logistical curve […] program (e.g., SigmaPlot) that calculates the concentration of biotinylated peptide giving a half-maximal signal (ED50).
The inhibition assay format is identical to the procedure described above with the exception that the unlabeled antagonist is serially diluted and incubated with constant concentrations of biotinylated RMBP 90-102 (0.3 nM for DR1Dw1 or 0.9 nM for DR4Dw4) and the MHC class II proteins. The concentration of unlabeled compound that prevents 50% of the labeled peptide from binding is the IC50 value. The concentration of the biotinylated RMBP 90-102 in each assay is experimentally determined to be […] one-sixth of its measured ED50 to assure the inhibition was primarily measuring the binding characteristics of the competitor.
In particular, a protocol for carrying out the inhibition assay is given below.
Preparation of Antibody Plate
Add 115 μL of 5 μg/mL LB3.1 in 50 mM Tris HCl pH 9.6/azide to each well of a Costar EIA plate. Incubate the plate overnight at 4° C.
Wash the plate 4 times with water/0.05% Tween-20/azide. Add 200 μL of PBS/5% FCS/azide for 1 hour at 4° C. to block the plate. The plate may be held at this point for later use or used immediately.
Flip out the block. It is not necessary to wash the plate. At 50 μL of load buffer (50 mM Tris HCl, pH 8.0 0.75% octylglucoside). Add to this volume 50 μL of the reaction mix from day 2, step 3 below.
Preparation of Reaction Mixture
(1) Add the following to a polypropylene round bottom 96-well plate such as a Costar #3794:
(A) Diluent (Ca Mg free PBS adjusted to pH 6.5 with 0.1 M KH2 PO4/0.75% octylglucoside/azide).81 μL
(B) Competitor at 16.6 times the final concentration in diluent or diluent alone. 9 μL
(C) Biotinylated RMBP (BRMBP) 90-102; 1.5 nM for DR1 or 4.5 nM for DR4 (These are 5 × stocks of final concentrations of 0.3 nM/DR1 or 0.9 nM/DR4)
(D) 6.25 nM DR1Dw1 or 50 nM DR4Dw4 (these are Drosophila transmembrane DR) (This is a 5× stock of the final concentration of 1.25 or 10 nM.) 30 μL Add the DR last and mix well at this time 150 μL
(2) Incubate at 37° C. for 20 min and 5 hours. […]

Setting [1] is: 20 min incubation at 37° C., 0.3 nM biotinylated RMBP 90-102, 1.25 nM DR1Dw1, pH 6.5, read-out: IC50 /μM @ 20'.
The mark [2] stands for this setting: 5 hours incubation at 37° C., 0.3 nM biotinylated RMBP 90-102, 1.25 nM DR1Dw1, pH 6.5, read-out: IC50 /μM @ 5 h.

Read-outs that look alike come from different tables or passages of the source.

Take “EtOCO-Phe-(S)-γ-Lactam-Nva-Leu-NH2 [Example 21]”: the IC50 stood at 3.1 µM under setting [1] and 10.5 µM under setting [2].

As for “EtOCO-Phe-(S)-δ-Lactam-L-Nva-Leu-NH2 [27(61)]”, the IC50 under setting [1] is 3.4 µM and the IC50 under setting [2] stood at 10 µM.

As for “[4H]-Naphthyl-CH2 -(R)-γ-Lactam-Nva-Leu-NH2 [Example 50]”, the IC50 worked out at 2.5 µM under setting [1] and 23.5 µM under setting [2].

For the substance “cHp(CH2)3 -(R)-γ-Lactam-Nva-Leu-NH2 [Example 14]”, the IC50 by setting is: under setting [1], 0.34 µM; under setting [2], 2.9 µM.

Regarding “cHp(CH2)3 -α-Propyl-(R)-γ-Lactam-Nva-Leu-NH2 [Example 32]”, the IC50 worked out at 0.15 µM under setting [1] and 1.4 µM under setting [2].

For “cHx((CH3)C=CHCH2)-(R)-γ-Lactam-Nva-Leu-NH2 [Example 11]”, the IC50 stood at 0.76 µM under setting [1] and 5.2 µM under setting [2].

As for “cHx((CH3)CHCH2 CH2 NH)-(R)-γ-Lactam-Nva-Leu-NH2 [Example 12]”, the IC50 under setting [1] amounted to 0.65 µM and the IC50 under setting [2] came out at 5.6 µM.

Take “cHx(CH2)3 -α-(3-Aminopropyl)-(R)-γ-Lactam-Nva-NHNBu(COOEt) [Example 53]”: the IC50 reads like this: under setting [1], 0.68 µM; under setting [2], 3.1 µM.

With “cHx(CH2)3 -α-(3-Hydroxypropyl)-(R)-γ-Lactam-Nva-Leu-NH2 [Example 33]”, the IC50 turned out to be 0.13 µM under setting [1] and 0.86 µM under setting [2].

For “cHx(CH2)3 -α-(3-Hydroxypropyl)-(R)-γ-Lactam-Nva-NHNBu(COOEt) [Example 51]”, the IC50 worked out at 0.16 µM under setting [1] and 0.63 µM under setting [2].

Consider “cHx(CH2)3 -α-(3-guanidinopropyl)-(R)-γ-Lactam-Nva-NHNBu(COOEt) [Example 54]”, for which the IC50 came out at 0.21 µM under setting [1] and 0.93 µM under setting [2].

On to “cHx(CH2)3 -α-propyl-(R)-γ-Lactam-Nva-NHNBu(COOEt) [Example 35]”, for which the IC50 reads like this: under setting [1], 0.25 µM; under setting [2], 2 µM.

In the case of “cHx(CH23 -α-(3-Azidopropyl)-(R)-γ-Lactam-Nva-NHNBu(COOEt) [Example 52]”, the IC50 under setting [1] stood at 0.16 µM and the IC50 under setting [2] stood at 0.62 µM.
